# Test results as given in paper PMC6707612, “Cyclic-di-GMP binds to histidine kinase RavS to control RavS-RavR phosphotransfer and regulates the bacterial lifestyle transition between virulence and swimming” (PLoS Pathogens, 2019).
# Target: T1, RavR^ΔEAL (Xanthomonas campestris pv. campestris, UniProt Q8P9A7)
# T1 sequence (Q8P9A7 with tags, fused parts or gaps): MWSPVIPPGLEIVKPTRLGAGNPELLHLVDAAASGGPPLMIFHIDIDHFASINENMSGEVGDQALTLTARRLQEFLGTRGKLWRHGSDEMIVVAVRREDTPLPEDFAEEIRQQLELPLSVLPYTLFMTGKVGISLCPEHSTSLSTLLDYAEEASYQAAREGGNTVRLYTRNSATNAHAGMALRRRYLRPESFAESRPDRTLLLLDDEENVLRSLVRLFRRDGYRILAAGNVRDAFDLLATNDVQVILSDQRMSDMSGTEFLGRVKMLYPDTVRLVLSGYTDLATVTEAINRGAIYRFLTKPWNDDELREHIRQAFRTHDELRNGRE
# Test: microscale thermophoresis (MST) binding
# Conditions: 20 nM fluorescein-labelled nucleotide
structure (smiles),measurement,value
"Nc1nc2c(ncn2[C@@H]2O[C@@H]3COP(=O)(O)O[C@H]4[C@@H](O)[C@H](n5cnc6c(=O)[nH]c(N)nc65)O[C@@H]4COP(=O)(O)O[C@H]3[C@H]2O)c(=O)[nH]1 [c-di-GMP, Cyclic di-GMP]",dissociation constant (Kd),did not bind
